{
  "source": "patent US11771712B2",
  "about": "“Carborane compounds and methods of use thereof” (OHIO STATE INNOVATION FOUNDATION, priority 2015, dated 2023)",
  "key": {"Human full-length ERβ": {"target": "T1, Human full-length ERβ (Homo sapiens, UniProt Q92731)", "T1 construct": "expression vector encoding human full-length ERα or ERβ; expressed in transfected cells; host or cells: HEK293, transiently transfected", "T1 sequence (Q92731 whole entry)": "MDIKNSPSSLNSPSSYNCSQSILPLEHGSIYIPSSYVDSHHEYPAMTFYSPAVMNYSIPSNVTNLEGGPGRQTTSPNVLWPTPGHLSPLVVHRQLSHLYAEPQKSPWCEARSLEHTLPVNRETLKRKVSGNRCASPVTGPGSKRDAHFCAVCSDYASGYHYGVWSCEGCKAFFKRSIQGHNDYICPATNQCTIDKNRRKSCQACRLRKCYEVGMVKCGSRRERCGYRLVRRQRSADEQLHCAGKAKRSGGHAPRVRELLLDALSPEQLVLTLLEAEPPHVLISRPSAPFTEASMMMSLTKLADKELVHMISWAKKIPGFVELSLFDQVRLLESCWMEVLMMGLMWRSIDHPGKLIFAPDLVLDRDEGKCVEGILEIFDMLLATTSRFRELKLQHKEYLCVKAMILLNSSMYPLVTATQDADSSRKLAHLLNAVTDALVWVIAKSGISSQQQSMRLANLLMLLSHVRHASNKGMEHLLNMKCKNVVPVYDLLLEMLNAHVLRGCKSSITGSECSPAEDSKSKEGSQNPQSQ", "assay": "ERβ cell-based luciferase reporter assay, agonist mode, transiently transfected HEK293 cells", "protocol": "(§1) The selectivity and potency of the various compounds was carried out via in vitro testing in ERα and ERβ cell-based reporter assays. The activity of the selected compounds was determined in the cell-based reporter assays in HEK293 cells.\n(§2) The HEK293 cells were propagated in a monolayer in phenol red-free DMEM supplemented with 10% fetal bovine serum, 2 mM Glutamax and penicillin/streptomycin (Thermo Fisher Scientific, MA, USA) and incubated in a 5% CO2 humidified atmosphere at 37° C. Right before transfection, the growth medium was changed to phenol red-free DMEM supplemented with 4% HyClone Fetal Bovine Serum, Charcoal/Dextran Treated (GE Healthcare Life Sciences, USA) and 2 mM Glutamax (starvation medium). The cells were transfected with the expression vector encoding human full-length ERα or ERβ and with the reporter vector containing 3 repeats of estrogen responsive elements (ERE) followed by the minimal thymidine kinase promoter from the herpes simplex virus in the pGL4 vector (Promega, USA). Luciferase served as a reporter gene. The transfection was carried out in 10 cm dishes (Nunc) in the starvation medium. After 24 hours, the cells were trypsinized, counted and seeded to cell culture treated, white, solid 1536-well plates (Corning Inc., NY, USA) at 1500 cells/well in 4 μl of total media volume. The compounds to be tested were diluted in DMSO and transferred to the cells using an acoustic dispenser Echo 520 (Labcyte). The compounds were tested at least at 12 different concentration points in the range from 10 μM to 100 pM, in triplicates. Luciferase activity was determined after 24 hours of incubation with compounds with Britelite plus luciferase reporter gene assay reagent (Perkin Elmer, USA), according to the manufacturer protocol. The luciferase signal was measured on an Envison multimode plate reader (Perkin Elmer, USA). Data were collected and processed using an in-house built LIMS system ScreenX and GraphPad Prism software. EC50 values were calculated using a regression function (dose response, variable slope)."}, "HEK293 cells": {"tested_on": "HEK293 cells", "assay": "HEK293 viability assay (ATPlite 1step)", "type": "cell-based, human", "conditions": "non-transfected HEK293, 24 h, ATP level; for HEK293 viability IC50 (μM): Low = activity detected but too low for exact value", "protocol": "The non-transfected HEK293 cells were seeded to the 384-well plates at 5000 cell/well, compounds were added and the timing of all subsequent steps was exactly the same as in the reporter assays. […] After 24 h of compound incubation with cells, the viability of cells was measured by determining the ATP level in the samples using luciferase cell viability assay, ATPlite 1step (Perkin Elmer, USA)."}, "Human full-length GR": {"target": "T2, Human full-length GR (Homo sapiens, UniProt P04150)", "T2 sequence (P04150 1-777)": "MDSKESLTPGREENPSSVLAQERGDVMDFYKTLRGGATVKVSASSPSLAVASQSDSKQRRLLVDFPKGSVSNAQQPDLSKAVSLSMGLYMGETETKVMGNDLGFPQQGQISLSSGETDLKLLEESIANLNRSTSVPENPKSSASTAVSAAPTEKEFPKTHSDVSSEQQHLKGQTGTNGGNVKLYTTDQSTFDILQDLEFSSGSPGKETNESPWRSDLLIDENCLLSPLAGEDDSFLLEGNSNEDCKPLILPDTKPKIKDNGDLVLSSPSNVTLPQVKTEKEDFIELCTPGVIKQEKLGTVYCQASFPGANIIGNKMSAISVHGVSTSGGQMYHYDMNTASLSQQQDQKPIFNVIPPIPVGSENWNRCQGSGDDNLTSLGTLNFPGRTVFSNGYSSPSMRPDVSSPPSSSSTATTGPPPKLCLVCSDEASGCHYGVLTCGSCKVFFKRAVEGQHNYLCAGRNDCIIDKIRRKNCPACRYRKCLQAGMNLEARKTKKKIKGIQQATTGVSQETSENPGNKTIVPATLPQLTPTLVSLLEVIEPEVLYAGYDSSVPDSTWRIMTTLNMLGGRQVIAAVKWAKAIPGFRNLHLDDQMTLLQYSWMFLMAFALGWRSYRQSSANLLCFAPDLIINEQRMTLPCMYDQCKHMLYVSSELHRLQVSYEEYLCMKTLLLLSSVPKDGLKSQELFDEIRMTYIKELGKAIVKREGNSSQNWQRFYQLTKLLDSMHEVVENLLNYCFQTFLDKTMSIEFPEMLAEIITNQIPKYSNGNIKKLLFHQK", "assay": "GR cell-based luciferase reporter assay, agonist and antagonist mode, stable U2OS reporter cells", "conditions": "agonist mode and antagonist mode (10 nM dexamethasone), 100 μM to 100 pM, 24 hours"}, "Human full-length AR": {"target": "T3, Human full-length AR (Homo sapiens, UniProt P10275)", "T3 sequence (P10275 1-920)": "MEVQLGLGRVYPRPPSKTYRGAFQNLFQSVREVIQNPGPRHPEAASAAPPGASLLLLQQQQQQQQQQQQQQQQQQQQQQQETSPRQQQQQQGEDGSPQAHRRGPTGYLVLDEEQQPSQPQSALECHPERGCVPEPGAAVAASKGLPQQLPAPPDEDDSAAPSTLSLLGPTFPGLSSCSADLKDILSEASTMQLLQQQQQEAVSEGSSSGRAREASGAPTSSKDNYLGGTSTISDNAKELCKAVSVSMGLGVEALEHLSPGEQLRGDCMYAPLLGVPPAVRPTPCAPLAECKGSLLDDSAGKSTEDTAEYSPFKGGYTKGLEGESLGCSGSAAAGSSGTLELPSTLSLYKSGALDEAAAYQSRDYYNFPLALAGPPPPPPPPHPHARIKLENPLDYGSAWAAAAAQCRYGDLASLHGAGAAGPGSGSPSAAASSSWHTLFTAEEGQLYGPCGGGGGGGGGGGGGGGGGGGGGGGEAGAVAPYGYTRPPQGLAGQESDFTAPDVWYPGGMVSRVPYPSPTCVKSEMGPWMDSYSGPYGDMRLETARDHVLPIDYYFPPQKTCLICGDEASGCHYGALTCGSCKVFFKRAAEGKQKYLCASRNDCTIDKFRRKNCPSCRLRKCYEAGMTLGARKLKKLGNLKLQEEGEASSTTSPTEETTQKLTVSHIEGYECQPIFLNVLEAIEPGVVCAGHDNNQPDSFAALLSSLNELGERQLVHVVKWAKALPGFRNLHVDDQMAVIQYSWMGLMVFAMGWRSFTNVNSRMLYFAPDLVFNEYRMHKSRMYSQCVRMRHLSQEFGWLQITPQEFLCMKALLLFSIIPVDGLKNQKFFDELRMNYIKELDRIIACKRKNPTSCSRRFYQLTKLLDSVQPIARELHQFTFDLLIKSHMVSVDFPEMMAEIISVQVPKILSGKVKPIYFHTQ", "assay": "AR cell-based luciferase reporter assay, agonist and antagonist mode, stable U2OS reporter cells", "conditions": "agonist mode and antagonist mode (2 nM dihydrotestosterone), 100 μM to 100 pM, 24 hours"}, "Human full-length ERα": {"target": "T4, Human full-length ERα (Homo sapiens, UniProt P03372)", "T4 construct": "expression vector encoding human full-length ERα or ERβ; expressed in transfected cells; host or cells: HEK293, transiently transfected", "T4 sequence (P03372 1-595)": "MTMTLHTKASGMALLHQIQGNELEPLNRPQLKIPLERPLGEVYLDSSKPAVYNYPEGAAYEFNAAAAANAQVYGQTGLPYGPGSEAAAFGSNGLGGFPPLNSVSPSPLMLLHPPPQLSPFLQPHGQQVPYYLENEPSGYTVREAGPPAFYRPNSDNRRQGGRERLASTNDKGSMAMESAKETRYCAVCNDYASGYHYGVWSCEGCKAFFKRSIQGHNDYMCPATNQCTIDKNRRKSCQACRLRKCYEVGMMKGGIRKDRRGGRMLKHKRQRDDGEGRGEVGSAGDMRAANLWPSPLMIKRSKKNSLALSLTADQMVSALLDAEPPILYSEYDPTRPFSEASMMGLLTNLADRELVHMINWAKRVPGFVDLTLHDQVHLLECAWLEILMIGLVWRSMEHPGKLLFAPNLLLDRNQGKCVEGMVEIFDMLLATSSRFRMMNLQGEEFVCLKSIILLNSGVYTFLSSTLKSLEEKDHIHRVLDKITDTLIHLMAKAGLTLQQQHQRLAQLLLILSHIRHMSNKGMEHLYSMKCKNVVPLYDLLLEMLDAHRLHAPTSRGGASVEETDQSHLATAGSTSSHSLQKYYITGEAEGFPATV", "assay": "ERα cell-based luciferase reporter assay, agonist mode, transiently transfected HEK293 cells", "conditions": "24 h; for EC50: low = activity detected but too low for exact value", "protocol": "as §1, §2"}, "[1]": {"conditions": "Trial 2 (believed more reliable)"}},
  "note": "Read-outs that look alike come from different tables or passages of the source.",
  "data": [
    {"compound": "1-(4-hydoxyphenyl)-12-(1-hydroxyheptyl)-1,12-dicarba-closo-dodecaborane [Compound 06]", "values": [
      {"measurement": "ERβ Efficacy (%)", "setting": "Human full-length ERβ; Trial 1", "value": 100, "unit": "%"},
      {"measurement": "ERβ Log(EC50) (M)", "setting": "Human full-length ERβ; Trial 1, log10 of EC50", "value": "−7.71", "unit": "M"},
      {"measurement": "EC50", "setting": "Human full-length ERβ; Trial 1, read-out: ERβ EC50", "value": 19, "unit": "nM"},
      {"measurement": "ERβ Efficacy (%)", "setting": "Human full-length ERβ; [1]", "value": 103, "unit": "%"},
      {"measurement": "ERβ Log(EC50) (M)", "setting": "Human full-length ERβ; Trial 2 (believed more reliable), log10 of EC50", "value": "−7.76", "unit": "M"},
      {"measurement": "EC50", "setting": "Human full-length ERβ; Trial 2 (believed more reliable), read-out: ERβ EC50", "value": 17, "unit": "nM"},
      {"measurement": "EC50", "setting": "Human full-length ERβ; differs from Table 5, luciferase reporter assay in HEK cells, read-out: EC50 at ERβ", "value": 5, "unit": "nM"},
      {"measurement": "IC50", "setting": "HEK293 cells; Trial 1", "value": 18000, "unit": "nM"},
      {"measurement": "IC50", "setting": "HEK293 cells; [1]", "value": 17000, "unit": "nM"},
      {"measurement": "agonistic or antagonistic activities on GR", "setting": "Human full-length GR", "value": "no agonistic or antagonistic activities"}
    ]},
    {"compound": "C[C@]12CC[C@@H]3c4ccc(O)cc4CC[C@H]3[C@@H]1CC[C@@H]2O", "note": "[Compound E2, Estradiol]", "values": [
      {"measurement": "HEK293 viability IC50 (μM)", "setting": "HEK293 cells", "value": "Low"},
      {"measurement": "agonistic or antagonistic activities on GR", "setting": "Human full-length GR", "value": "no agonistic or antagonistic activities"}
    ]},
    {"compound": "N#CC(Cc1ccc(O)cc1)c1ccc(O)cc1", "note": "(centres unmarked) [DPN, Diarylpropionitrile]", "values": [
      {"measurement": "HEK293 viability IC50 (μM)", "setting": "HEK293 cells", "value": "Low"},
      {"measurement": "agonistic or antagonistic activities on AR", "setting": "Human full-length AR", "value": "no agonistic or antagonistic activities"},
      {"measurement": "agonistic or antagonistic activities on GR", "setting": "Human full-length GR", "value": "no agonistic or antagonistic activities"}
    ]},
    {"compound": "CCCc1c(-c2ccc(O)cc2)nn(-c2ccc(O)cc2)c1-c1ccc(O)cc1", "note": "[PPT, Propyl pyrazole triol]", "values": [
      {"measurement": "ERα Efficacy (%)", "setting": "Human full-length ERα", "value": 101, "unit": "%"},
      {"measurement": "EC50", "setting": "Human full-length ERα; read-out: ERα EC50", "value": 3.3, "unit": "nM"},
      {"measurement": "EC50", "setting": "Human full-length ERα; log10 of EC50, negative values, read-out: ERα Log(EC50) (converted)", "value": 3.31, "unit": "nM"},
      {"measurement": "ERβ EC50 (nM)", "setting": "Human full-length ERβ; 24 h, low = activity detected but too low for exact value", "value": "low"},
      {"measurement": "ERβ Log(EC50) (M)", "setting": "Human full-length ERβ; log10 of EC50, negative values, 24 h, low = activity detected but too low for exact value", "value": "low"}
    ]}
  ]
}
